Data published in patent US6399614B1, “1-(N-phenylaminoalkyl)piperazine derivatives substituted at position 2 of the phenyl ring” (Recordati S.A. Chemical and Pharmaceutical Company, priority 1997, dated 2002).
Where two headings read alike, the source gives them in different places.

Columns and labels:
[1] = target: T1, human 5-HT1A serotonergic receptor (Homo sapiens, UniProt P08908); assay: Radioreceptor binding, recombinant human 5-HT1A receptors ([3H]8-OH-DPAT, HeLa membranes); conditions: recombinant human receptor, [3H]8-OH-DPAT; Ki from IC50 by Cheng & Prusoff; read-out: Binding affinity for the 5-HT1A receptor, Ki
T1 construct: expressed in transfected cells; host or cells: HeLa
T1 sequence (P08908 1-422): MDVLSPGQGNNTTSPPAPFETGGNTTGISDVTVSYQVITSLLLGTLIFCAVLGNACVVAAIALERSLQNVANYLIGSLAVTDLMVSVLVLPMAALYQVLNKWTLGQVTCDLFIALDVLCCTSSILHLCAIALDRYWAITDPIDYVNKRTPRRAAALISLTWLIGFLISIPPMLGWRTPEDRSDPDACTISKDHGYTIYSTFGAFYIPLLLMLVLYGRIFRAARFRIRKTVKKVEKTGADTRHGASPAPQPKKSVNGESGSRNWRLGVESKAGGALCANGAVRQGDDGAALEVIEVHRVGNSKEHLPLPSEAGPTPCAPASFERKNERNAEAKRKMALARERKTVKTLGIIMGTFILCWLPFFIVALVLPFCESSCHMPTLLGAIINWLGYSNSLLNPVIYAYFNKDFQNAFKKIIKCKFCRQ
Procedure: Genomic clone G-21 coding for the human 5-HT1A serotonergic receptor is stably transfected in a human cell line (HeLa). HeLa cells were grown as monolayers in Dulbecco's modified Eagle's medium (DMEM), supplemented with 10% fetal calf serum and gentamicin ([…]), 5% CO2 at 37° C. Cells were detached from the growth flask at 95% confluence by a cell scraper and were lysed in ice-cold 5 mM Tris and 5 mM EDTA buffer (pH 7.4). Homogenates were centrifuged at 40000×g×20 min and pellets were resuspended in a small volume of ice-cold 5 mM Tris and 5 mM EDTA buffer (pH 7.4) and immediately frozen and stored at −70° C. until use. On the day of experiment, cell membranes were resuspended in binding buffer: 50 mM Tris HCl (pH 7.4), 2.5 mM MgCl2, 10 μM pargiline (Fargin et al., Nature 335, 358-360, 1988). Membranes were incubated in a final volume of 1 ml for 30 min at 30° C. with 0.2-1 nM [3H]8-OH-DPAT, in absence or presence of competing drugs; non-specific binding was determined in the presence of 10 μM 5-HT. The incubation was stopped by addition of ice-cold Tris-HCl buffer and rapid filtration through 0.2% polyethyleneimine pretreated Whatman GF/B or Schleicher & Schuell GF52 filters.
The inhibition of specific binding of the radioligands by the tested drugs was analyzed to estimate the IC50 value by using the non-linear curve-fitting program Allfit (De Lean et al., Am. J. Physiol. 235, E97-E102, 1978). The IC50 value was converted to an affinity constant (Ki) by the equation of Cheng & Prusoff (Cheng, Y. C.; Prusoff, W. H. Biochem. Pharmacol. 22, 3099-3108, 1973).

[2] = system: rhythmic bladder voiding contractions; assay: Volume-induced rhythmic bladder voiding contractions in anaesthetized rats; type: in vivo, rat; conditions: Rattus norvegicus; for ED (10 min disappearance of contractions): read-out: ED10 min
Procedure: Female Sprague Dawley rats weighing 225-275 g (Crl: CDo BR, Charles River Italia) were used. The animals were housed with free access to food and water and were maintained on a forced 12 h alternating light-dark cycle at 22-24° C. for at least one week, except during the experiment. The activity on the rhythmic bladder voiding contractions was evaluated according to the method of Dray (J. Pharmacol. Methods, 13:157, 1985), with some modifications as in Guarneri (Pharmacol. Res., 27:173, 1993). Briefly, rats were anesthetized by subcutaneous injection of 1.25 g/kg (5 ml/kg) urethane, after which the urinary bladder was catheterized via the urethra using PE 50 polyethylene tubing filled with physiological saline. The catheter was tied in place with a ligature around the external urethral orifice and was connected with conventional pressure transducers (Statham P23 ID/P23 XL). […] The bladder was then filled via the recording catheter by incremental volumes of warm (37° C.) saline until reflex bladder voiding contractions occurred (usually 0.8-1.5 ml). For intravenous (i.v.) injection of bioactive compounds, PE 50 polyethylene tubing filled with physiological saline was inserted into the jugular vein. From the cystometrogram, the number of contractions recorded 15 min before (basal values) and after treatment, as well as the mean amplitude of these contractions (mean height of the peaks in mmHg) was evaluated.
Since most compounds produced an effect that was relatively rapid in onset and led to a complete cessation of bladder contractions, bioactivity was conveniently estimated by measuring the duration of bladder quiescence (i.e., the duration of time during which no contractions occurred). The number of animals tested showing a reduction in the number of contractions >30% of that observed in the basal period was also recorded.
Also computed in this manner were extrapolated doses which induced a reduction of the number of contractions of greater than 30% in 50% of treated rats (ED50, frequency) by the method of Bliss (Bliss C. I., Quart. J. Pharm. Pharmacol. 11, 192-216, 1938). After the suppressive effects of drug injection wore off, the height of the contractile peaks was compared with the height of the peaks previously recorded after the control intravenous administration of vehicle. The potency of the tested compounds (ED50 value: the extrapolated doses inducing a 30% reduction of amplitude of the contractions in 50% of treated rats) was evaluated on a quantal basis by the method of Bliss (Bliss C. I., Quart. J. Pharm. Pharmacol. 11, 192-216, 1938).

[3] = system: urinary bladder; assay: Cystometric parameters (cystometrogram) in conscious rats; type: in vivo, rat; conditions: for BVC after treatment / MP after treatment: mean ± S.E.; for change in vivo at 0.3 mg/kg / change in vivo at 1 mg/kg / change in vivo at 0.1 mg/kg: Rattus norvegicus, iv, 0.25 h, after vs before; for change in vivo at 0.3 mg/kg: i.v. 300 μg/kg; for change in vivo at 1 mg/kg: i.v. 1000 μg/kg; for change in vivo at 0.1 mg/kg: i.v. 100 μg/kg
Procedure: Male Sprague Dawley rats (Crl: CDo BR) weighing 250-350 g were used. The animals were housed with free access to food and water and maintained on a forced 12 h alternating light-dark cycle at 22-24° C. for at least one week, except during performance of the experiment. To quantify urodynamic parameters in conscious rats, cystometrographic studies were performed using procedures previously described (Guarneri et al., Pharmacol. Res., 24:175, 1991). […] An approximately 10 mm long midline incision was made in the shaved and cleaned abdominal wall. The urinary bladder was gently freed from adhering tissues, emptied, and then cannulated, via an incision at the dome, with a polyethylene cannula (Portex PP30), which was permanently sutured with silk thread. The cannula was exteriorized through a subcutaneous tunnel in the retroscapular area, where it was connected with a plastic adapter to avoid the risk of removal by the animal. For intravenous (i.v.) injection of test compounds, a PE 50 polyethylene tubing filled with physiological saline was inserted into the jugular vein and exteriorized in the retroscapular area. The rats were utilized exclusively one day after implantation. On the day of the experiment, the rats were placed in Bollman's cages, after a stabilization period of 20 min, and the free tip of the bladder catheter was connected through a T-shaped tube to a pressure transducer (Bentley T 800/Marb P 82) and to a peristaltic pump (Gilson minipuls 2) for a continuous infusion, at the constant rate of 0.1 ml/min, of saline solution into the urinary bladder. The intraluminal pressure signal during infusion was continuously recorded on a polygraph (Battaglia Rangoni KO 380 with ADCl/T amplifier).
Two urodynamic parameters were evaluated: bladder volume capacity (BVC) and micturition pressure (MP). BVC (in ml) is defined as the minimum volume infused after which detrusor contraction (followed by micturition) occurs. MP (in mm Hg) is defined as the maximal intravesical pressure induced by the contraction of detrusor during micturition. Basal BVC and MP values were calculated as the means of the first two recorded cystometrograms. At this point in the assay, the infusion was interrupted and the test compounds were administered. Fifteen minutes after intravenous administration two additional cystometrograms were recorded in each animal and the mean values of the two cystometrographic parameters were calculated. The statistical significance of the differences in urodynamic parameter values was evaluated by Student's t test for paired data.

[4] = extrapolated dose inducing 10 min of disappearance of the contractions, intravenous, anaesthetized rats
[5] = extrapolated dose inducing a reduction of the number of contractions >30% in 50% of treated rats, intravenous, read-out: ED50 (frequency)

Row | Ki [1] [nM] | Compound | ED (10 min disappearance of contractions) [2, 4] [mg/kg] | ED50 [2, 5] [mg/kg] | BVC after treatment ([3]; 15 min after i.v. 300 μg/kg) [mL] | MP after treatment ([3]; 15 min after i.v. 300 μg/kg) [mmHg] | BVC after treatment ([3]; 15 min after i.v. 1000 μg/kg) [mL] | change in vivo at 0.3 mg/kg ([3]; read-out: MP % of change) [%] | also measured
1 | 2.92 | COc1ccccc1N1CCN(CCNc2ccccc2C(C)=O)CC1 [Example 11, 1-[N-(2-acetylphenyl)-2-aminoethyl]-4-(2-methoxyphenyl)piperazine] | 0.318 | 0.04 | – | – | – | – | –
2 | 0.57 | COc1ccccc1N1CCN(CCN(C(=O)C2CCCCC2)c2ccccc2N)CC1 [Example 27, 1-[N-(2-aminophenyl)-N-cyclohexylcarbonyl-2-aminoethyl]-4-(2-methoxyphenyl) piperazine] | 0.131 | 0.013 | – | – | – | – | –
3 | 0.46 | COc1ccccc1N(CCN1CCN(c2cccc3[nH]ccc23)CC1)C(=O)C1CCCCC1 [Example 48, 1-[N-cyclohexylcarbonyl-N-(2-methoxyphenyl)-2-aminoethyl]-4-(4-indolyl)piperazine] | 0.04 | 0.014 | – | – | – | – | –

The next lines start with the molecule.

Row | Compound | Ki [1] [nM] | ED (10 min disappearance of contractions) [2, 4] [mg/kg] | ED50 [2, 5] [mg/kg] | BVC after treatment ([3]; 15 min after i.v. 300 μg/kg) [mL] | MP after treatment ([3]; 15 min after i.v. 300 μg/kg) [mmHg] | BVC after treatment ([3]; 15 min after i.v. 1000 μg/kg) [mL] | change in vivo at 0.3 mg/kg ([3]; read-out: MP % of change) [%] | also measured
4 | COc1ccccc1N1CCN(CCNc2ccccc2C#N)CC1 [Example 10, 1-[N-(2-cyanophenyl)-2-aminoethyl]-4-(2-methoxyphenyl)piperazine] | 17.2 | 0.122 | 0.028 | – | – | – | – | –
5 | COc1ccccc1NCCN1CCN(c2ccccc2OC)CC1 [Example 20, 1-[N-(2-methoxyphenyl)-2-aminoethyl]-4-(2-methoxyphenyl)piperazine] | 24.6 | – | – | – | – | – | – | ED (10 min disappearance of contractions) ([2]; iv): 0.097 mg/kg; ED50 ([2]; iv, read-out: ED50 (frequency)): 0.025 mg/kg
6 | COc1ccccc1N1CCN(CCN(C(=O)C2CCCCC2)c2ccccc2OCC(F)(F)F)CC1 [Example 42, 1-[N-[2-(2,2,2-trifluoroethoxy)phenyl]-N-cyclohexylcarbonyl-2-aminoethyl]-4-(2-methoxyphenyl)piperazine] | – | 0.033 | 0.018 | 0.89 ± 0.15 | 66.5 ± 9.9 | 1.00 ± 0.16 | -20 | MP after treatment ([3]; 15 min after i.v. 1000 μg/kg): 70.3 ± 7.8 mmHg; change in vivo at 0.3 mg/kg ([3]; read-out: BVC % of change): 26.4%; change in vivo at 1 mg/kg ([3]; read-out: BVC % of change): 41.7%; change in vivo at 1 mg/kg ([3]; read-out: MP % of change): -9.2%
7 | COc1ccccc1N1CCN(CCN(C(=O)C2CCCCC2)c2ccccc2C#N)CC1.Cl [Example 43, 1-[N-(2-cyanophenyl)-N-cyclohexylcarbonyl-2-aminoethyl]-4-(2-methoxyphenyl)piperazine Hydrochloride] | – | 0.052 | 0.004 | – | – | – | – | –
8 | COc1ccccc1NCCN1CCN(c2cccc3[nH]ccc23)CC1 [Example 47, 1-[N-(2-methoxyphenyl)-2-aminoethyl]-4-(4-indolyl)piperazine] | 2.33 | 0.181 | 0.02 | – | – | – | – | –
9 | Cc1c(-c2ccccc2)oc2c(C(=O)OCCN3CCCCC3)cccc2c1=O [Flavoxate, flavoxate, reference compound] | – | > 10 | – | 0.87 ± 0.11 | 95.0 ± 10.9 | 1.11 ± 0.16 | 6.5 | MP after treatment ([3]; 15 min after i.v. 1000 μg/kg): 80.1 ± 11.1 mmHg; change in vivo at 0.3 mg/kg ([3]; read-out: BVC % of change): 14.5%; change in vivo at 1 mg/kg ([3]; read-out: BVC % of change): 26.1%; change in vivo at 1 mg/kg ([3]; read-out: MP % of change): -11.4%; i.v. dose at which a significant increase in BVC was observed ([3]; conscious rats, i.v.): 1.0 mg/kg
10 | CCN(CC)CC#CCOC(=O)C(O)(c1ccccc1)C1CCCCC1 (stereo not shown) [Oxybutinin, oxybutynin, reference compound] | – | 7.77 | > 10 | 0.83 ± 0.12 | 50.5 ± 6.3 | 1.00 ± 0.18 | -38.6 | BVC after treatment ([3]; 15 min after i.v. 100 μg/kg): 0.89 ± 0.18 mL; MP after treatment ([3]; 15 min after i.v. 100 μg/kg): 77.4 ± 10.3 mmHg; change in vivo at 0.1 mg/kg ([3]; read-out: BVC % of change): 8.5%; change in vivo at 0.1 mg/kg ([3]; read-out: MP % of change): -18.7%; effect on MP (in words) ([3]; conscious rats, i.v.): markedly and dose-dependently decreased MP; ED50 ([2]; extrapolated dose inducing 30% reduction of amplitude of the contractions in 50% of treated rats, intravenous, n.a. = not active, no significant reduction of the height of peaks, read-out: ED50 (amplitude)): 0.24 mg/kg
